molecular target: T1, HIF-2α HIS TAG-PASB Domain (Homo sapiens, UniProt Q99814); test: HIF-2α Scintillation Proximity Assay (SPA); format: binding; conditions: Scintillation Proximity Assay IC50 (nM)
T1 construct: 100 nM HIF-2α HIS TAG-PASB Domain
Protocol: The total assay volume was about 100 μL in the following configuration: 2 μL compound in 100% DMSO, 88 μL buffer with protein and probe and 10 μL of SPA beads. […] The percent inhibition was determined and IC50 values were calculated using the Dotmatics system based on the following equation: % inhibition=[(high control−sample)/(high control−low control)]×100.

T1 sequence (Q99814 240-350 limits assumed): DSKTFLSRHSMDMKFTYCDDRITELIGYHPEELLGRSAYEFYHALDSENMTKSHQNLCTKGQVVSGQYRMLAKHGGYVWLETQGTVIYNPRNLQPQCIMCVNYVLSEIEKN

Row | SMILES | IC50 [nM]
1 | N#Cc1c(Oc2cc(F)cc(Cl)c2)ccc2c1C(O)C(F)(F)S2(=O)=O (stereo not shown) [Compound 356] | < 50
2 | Cc1c(Oc2cc(F)cc(Cl)c2)ccc2c1C(O)C(F)(F)S2(=O)=O (stereo not shown) [Compound 359] | < 50
3 | O=S1(=O)c2ccc(Oc3cc(F)cc(Cl)c3)cc2C(O)C1(F)F (stereo not shown) [Compound 362] | > 1000
4 | O=S1(=O)c2ccc(Oc3cc(F)cc(Cl)c3)c(C(F)F)c2C(O)C1(F)F (stereo not shown) [Compound 364] | < 50
5 | O=S1(=O)c2ccc(Oc3cncc(Cl)c3)c(C(F)F)c2C(O)C1(F)F (stereo not shown) [Compound 381] | 50 to 249
6 | N#Cc1cncc(Oc2ccc3c(c2C(F)F)C(O)C(F)(F)S3(=O)=O)c1 (stereo not shown) [Compound 383] | 50 to 249
7 | N#Cc1cc(F)cc(Oc2ccc3c(c2C(F)F)C(=O)C(F)(F)S3(=O)=O)c1 [Compound 385] | > 1000
8 | O=S1(=O)CCC(O)c2c1ccc(Oc1cc(F)cc(F)c1)c2C(F)F (stereo not shown) [Compound 402] | > 1000
9 | CC1(C)C(O)c2c(ccc(Oc3cc(F)cc(Cl)c3)c2Br)S1(=O)=O (stereo not shown) [Compound 406] | > 1000

same assay, conditions: read-out: Scintillation Proximity Assay IC50

Row | SMILES | IC50 [nM]
10 | O=S(=O)(c1ccc(Oc2cccn3ccnc23)c2c1C(O)C(F)(F)C2)C(F)(F)F (stereo not shown) [Compound 246] | > 1000
11 | N#Cc1cc(F)cc(Oc2ccc(Br)c3c2C(F)(F)C(F)(F)C3)c1 [Compound 248] | > 1000
12 | NS(=O)(=O)c1ccc(Oc2cc(F)cc(F)c2)c2c1C(O)CC2 (stereo not shown) [Compound 257] | > 1000
13 | N#Cc1cc(F)cc(Oc2ccc(S(=N)(=O)C(F)(F)F)c3c2CCC3O)c1 (stereo not shown) [Compound 259] | > 1000
14 | O=S(=O)(c1ccc(Oc2cc(F)cc3[nH]ncc23)c2c1C(O)C(F)(F)C2)C(F)(F)F (stereo not shown) [Compound 262] | > 1000
15 | N#Cc1cc(F)cc(Oc2ccc(S(=O)(=O)C(F)(F)F)c3c2CC(F)C3N)c1 (stereo not shown) [Compound 265] | 50 to 249
16 | N#Cc1cc(F)cc(Oc2ccc(S(=O)(=O)C(F)(F)F)c3c2CC(F)C3N)c1 (stereo not shown) [Compound 268] | > 1000
17 | CC(C)(C)OC(=O)N[C@H]1C[C@@H](O)c2c(S(=O)(=O)C(F)(F)F)ccc(Oc3cc(F)cc(C#N)c3)c21 [Compound 278] | > 1000
18 | C=C1CC(O)c2c(S(C)(=O)=O)ccc(Oc3cc(F)cc(Cl)c3)c21 (stereo not shown) [Compound 280] | > 1000
19 | CS(=O)(=O)c1ccc(Oc2cc(F)cc(Cl)c2)c2c1C(O)CC2CO (stereo not shown) [Compound 281] | 250 to 1000
20 | N#CN=S(=O)(CF)c1ccc(Oc2cc(F)cc(C#N)c2)c2c1[C@H](O)CC2 (stereo partly shown) [Compound 282] | > 1000
21 | CS(=O)(=O)N=S(=O)(CF)c1ccc(Oc2cc(F)cc(C#N)c2)c2c1[C@H](O)C(F)(F)C2 (stereo partly shown) [Compound 284] | > 1000
22 | N#CN=S(=O)(CF)c1ccc(Oc2cc(F)cc(C#N)c2)c2c1[C@H](O)C(F)(F)C2 (stereo partly shown) [Compound 286] | < 50
23 | CS(=O)(=O)c1ccc(Oc2cc(F)cc(C#N)c2)c2c1[C@H](O)CC2(F)F [Compound 288] | > 1000
24 | N#CN=S(=O)(c1ccc(Oc2cc(F)cc(C#N)c2)c2c1[C@H](O)[C@H](F)C2)C(F)F (stereo partly shown) [Compound 297] | > 1000
25 | C[C@]1(F)Cc2c(Oc3cc(F)cc(C#N)c3)ccc(S(C)(=O)=O)c2[C@@H]1O [Compound 298] | > 1000
26 | C=CCN=S(=O)(c1ccc(Oc2cc(F)cc(C#N)c2)c2c1[C@H](O)C(F)(F)C2)C(F)(F)F (stereo partly shown) [Compound 307] | 250 to 1000
27 | C=CCN=S(=O)(c1ccc(Oc2cc(F)cc(C#N)c2)c2c1[C@H](O)C(F)(F)C2)C(F)(F)F (stereo partly shown) [Compound 308] | 50 to 249
28 | CS(=O)(=O)c1ccc(Oc2cc(F)cc(C#N)c2)c2c1[C@H](O)C(F)(F)[C@H]2O [Compound 311] | > 1000
29 | CS(=O)(=NC#N)c1ccc(Oc2cc(F)cc(C#N)c2)c2c1[C@H](O)C(F)(F)[C@H]2F (stereo partly shown) [Compound 318] | > 1000
30 | CS(=O)(=NC#N)c1ccc(Oc2cncc(C#N)c2)c2c1[C@H](O)C(F)(F)[C@@H]2F (stereo partly shown) [Compound 319] | < 50
31 | CS(=O)(=NC#N)c1ccc(Oc2cncc(C#N)c2)c2c1[C@@H](O)C(F)(F)[C@@H]2F (stereo partly shown) [Compound 320] | > 1000
32 | CS(=O)(=O)c1ccc(Oc2cncc(Br)c2)c2c1C(=O)C(F)(F)C2 [Compound 323] | > 1000
33 | CS(=O)(=O)c1ccc(Oc2cncc(Br)c2)c2c1[C@H](O)[C@H](F)C2 [Compound 326] | > 1000

Row | SMILES | IC50 [nM]
34 | CS(=O)(=O)c1ccc(Oc2ccc(F)c(C#N)c2)c2c1[C@H](O)C(F)(F)[C@@H]2F [Compound 327] | < 50
35 | CS(=O)(=O)c1ccc(Oc2cncc(Br)c2)c2c1[C@H](O)[C@H](F)[C@@H]2F [Compound 328] | < 50
36 | CS(=O)(=O)c1ccc(Oc2cncc(F)c2)c2c1[C@H](O)C(F)(F)[C@@H]2F [Compound 329] | < 50
37 | CS(=O)(=O)c1ccc(Oc2cncc(F)c2)c2c1[C@H](O)C(F)(F)[C@H]2F [Compound 330] | > 1000
38 | CS(=O)(=O)c1ccc(Oc2cncc(Cl)c2)c2c1[C@H](O)C(F)(F)[C@@H]2F [Compound 331] | < 50
39 | CS(=O)(=O)c1ccc(Oc2cncc(Cl)c2)c2c1[C@H](O)C(F)(F)[C@H]2F [Compound 332] | > 1000
40 | CS(=O)(=O)c1ccc(Oc2cncc(C#N)c2)c2c1[C@H](O)[C@H](F)[C@@H]2F [Compound 333] | 50 to 249
41 | N#Cc1cc(F)cc(Oc2ccc(S(N)(=O)=O)c3c2[C@@H](O)C(F)(F)[C@H]3O)c1 [Compound 337] | > 1000
42 | N#Cc1cncc(Oc2ccc(S(N)(=O)=O)c3c2[C@@H](F)C(F)(F)[C@H]3O)c1 [Compound 340] | < 50
43 | NS(=O)(=O)c1ccc(Oc2cncc(F)c2)c2c1[C@H](O)C(F)(F)[C@@H]2F [Compound 341] | < 50
44 | CS(=O)(=O)c1ccc(Oc2cncc(C#N)c2)c2c1[C@H](O)C(F)(F)[C@H]2F [Compound 343] | > 1000
45 | N#Cc1cncc(Oc2ccc(S(=O)(=O)CF)c3c2[C@@H](F)C(F)(F)[C@H]3O)c1 [Compound 344] | < 50
46 | N#Cc1cncc(Oc2ccc(S(=O)(=O)CF)c3c2[C@H](F)C(F)(F)[C@H]3O)c1 [Compound 345] | > 1000
47 | CS(=O)(=O)c1ccc(Oc2cc(F)cc(C#N)c2)c2c1[C@H](N)C(F)(F)[C@@H]2F [Compound 346] | 250 to 1000
48 | N#Cc1cc(F)cc(Oc2ccc3c(c2Br)[C@@H](O)C(F)(F)S3(=O)=O)c1 [Compound 347] | < 50
49 | O=S1(=O)CCc2c1ccc(Oc1cc(F)cc(Cl)c1)c2Br [Compound 350] | > 1000
50 | N#Cc1c(Oc2cc(F)cc(Cl)c2)ccc2c1CCS2(=O)=O [Compound 351] | > 1000
51 | N#Cc1c(Oc2cc(F)cc(Cl)c2)ccc2c1C(O)CS2(=O)=O (stereo not shown) [Compound 353] | 50 to 249
52 | O=C1c2c(ccc(Oc3cc(F)cc(Cl)c3)c2Br)S(=O)(=O)C1(F)F [Compound 354] | > 1000
53 | NC1c2c(ccc(Oc3cc(F)cc(F)c3)c2C(F)F)S(=O)(=O)C1F (stereo not shown) [Compound 366] | > 1000
54 | NC1CS(=O)(=O)c2ccc(Oc3cc(F)cc(F)c3)c(C(F)F)c21 (stereo not shown) [Compound 367] | > 1000
55 | N#Cc1cc(F)cc(Oc2ccc3c(c2C(F)F)C(N)C(F)(F)S3(=O)=O)c1 (stereo not shown) [Compound 372] | < 50
56 | N#Cc1cc(F)cc(Oc2ccc3c(c2C(F)F)C(=N)C(F)S3(=O)=O)c1 (stereo not shown) [Compound 373] | > 1000
57 | N=S1(=O)c2ccc(Oc3cc(F)cc(F)c3)c(Br)c2C(O)C1(F)F (stereo not shown) [Compound 378] | 50 to 249

Row | SMILES | IC50 [nM]
58 | COCCNC1c2c(ccc(Oc3cc(F)cc(F)c3)c2Br)S(=O)(=O)C1(F)F (stereo not shown) [Compound 379] | < 50
59 | COCCNC1c2c(ccc(Oc3cc(F)cc(C#N)c3)c2C(F)F)S(=O)(=O)C1(F)F (stereo not shown) [Compound 382] | > 1000
60 | N#Cc1cc(F)cc(Oc2ccc3c(c2C(F)F)[C@H](N)C(F)(F)S3(=O)=O)c1 [Compound 384] | > 1000
61 | N#Cc1cc(F)cc(Oc2ccc3c(c2C(F)F)C(N)C(F)(F)S3(=O)=O)c1 (stereo not shown) [Compound 387] | 50 to 249
62 | N#Cc1cc(F)cc(Oc2ccc3c(c2CF)C(O)C(F)(F)S3(=O)=O)c1 (stereo not shown) [Compound 388] | 50 to 249
63 | Cc1cc(C#N)cc(Oc2ccc3c(c2C(F)F)C(=O)C(F)(F)S3(=O)=O)c1 [Compound 391] | > 1000
64 | N#Cc1cc(F)cc(Oc2ccc3c(c2Br)C(=O)C(F)(F)S3(=O)=O)c1 [Compound 393] | > 1000
65 | N=S1(=O)CC(O)c2c1ccc(Oc1cc(F)cc(F)c1)c2C(F)F (stereo not shown) [Compound 396] | > 1000
66 | N=S1(=O)c2ccc(Oc3cc(F)cc(F)c3)c(C(F)F)c2C(O)C1(F)F (stereo not shown) [Compound 399] | 50 to 249
67 | O=C1c2c(ccc(Oc3cc(F)cc(Cl)c3)c2Br)S(=O)(=O)C12CC2 [Compound 404] | > 1000
68 | N#Cc1c(Oc2cc(F)cc(Cl)c2)ccc2c1[C@H](O)CS2(=O)=O [Compound 407] | > 1000
69 | CC1(C)C(O)c2c(ccc(Oc3cc(F)cc(Cl)c3)c2C#N)S1(=O)=O (stereo not shown) [Compound 408] | > 1000
70 | N#Cc1cc(F)cc(Oc2ccc3c(c2C#CCF)C(O)C(F)(F)S3(=O)=O)c1 (stereo not shown) [Compound 410] | > 1000
71 | O=S1(=O)C[C@H](O)c2c1ccc(Oc1cc(F)cc(F)c1)c2Br [Compound 413] | > 1000
72 | N#Cc1cc(F)cc(Oc2ccc3c(c2Br)[C@@H](O)CS3(=O)=O)c1 [Compound 415] | > 1000
73 | O=C1CS(=O)(=O)c2ccc(Oc3cc(F)cc(F)c3)cc21 [Compound 417] | > 1000
74 | O=S1(=O)CC(O)c2c1ccc(Oc1cc(F)cc(F)c1)c2Br (stereo not shown) [Compound 418] | > 1000
75 | O=S1(=O)C[C@H](O)c2c1ccc(Oc1cccc(F)c1)c2Br [Compound 419] | > 1000
76 | N#Cc1cncc(Oc2ccc3c(c2Br)[C@@H](O)CS3(=O)=O)c1 [Compound 420] | > 1000
77 | CC1(O)c2cc(Oc3cc(F)cc(F)c3)ccc2S(=O)(=O)C1(F)F (stereo not shown) [Compound 425] | > 1000
78 | COc1cncc(Oc2ccc3c(c2Br)[C@@H](O)C(F)(F)S3(=O)=O)c1 [Compound 429] | > 1000
79 | CCOc1ccc2c(c1C(F)F)[C@@H](O)C(F)(F)S2(=O)=O [Compound 438] | > 1000
